Experimental data taken from the supplement of paper PMC11061612.

Assays:
AZD1775 = compound: C=CCn1c(=O)c2cnc(Nc3ccc(N4CCN(C)CC4)cc3)nc2n1-c1cccc(C(C)(C)O)n1 [AZD1775]; settings: max 3 µM
How it was run: (§1)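 Cancer cell lines were dosed for 72 hours (final DMSO typically 0.2%) after 24 hours at 37°C and 5% CO2 in 1536-well plates containing 7.5 μl DMEM/F12 or RPMI with 10% FBS. Viability came from CellTiter-Glo 2.0 luminescence, scaled between blank-well and DMSO-well means, and dose responses were fitted to a two-parameter logistic curve with a non-linear mixed effects model. The single-agent IC50 was obtained from this fit.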

AZD4320 = compound: CN(CC[C@H](CSC1=CC=CC=C1)NC2=C(C=C(C=C2)S(=O)(=O)NC(=O)C3=CC=C(C=C3)N4CCC(CC4)[C@H](C5=CC=CC=C5C6=CC=C(C=C6)Cl)O)S(=O)(=O)C(F)(F)F)CCO [AZD4320]; settings: max 1 µM
How it was run: as §1

Prexasertib = compound: COc1cccc(OCCCN)c1-c1cc(Nc2cnc(C#N)cn2)n[nH]1 [Prexasertib]; settings: max 1 µM
How it was run: as §1

AZD2811 = compound: CCN(CCO)CCCOc1ccc2c(Nc3cc(CC(=O)Nc4cccc(F)c4)[nH]n3)ncnc2c1 [AZD2811]; settings: max 1 µM
How it was run: as §1

AZD0156 = compound: CN(C)CCCOc1ccc(-c2ccc3ncc4c(c3c2)n(C2CCOCC2)c(=O)n4C)cn1 [AZD0156]; settings: max 3 µM
How it was run: as §1

Selumetinib = compound: Cn1cnc2c(F)c(Nc3ccc(Br)cc3Cl)c(C(=O)NOCCO)cc21 [Selumetinib]; settings: max 10 µM
How it was run: as §1

SG3199 = compound: CC1=CN2[C@@H](C1)C=NC3=CC(=C(C=C3C2=O)OC)OCCCCCOC4=C(C=C5C(=C4)N=C[C@@H]6CC(=CN6C5=O)C)OC [SG3199]; settings: max 0.001 µM
How it was run: as §1

5-Fluorouracil = compound: O=c1[nH]cc(F)c(=O)[nH]1 [5-Fluorouracil]; settings: max 20 µM
How it was run: as §1

Carboplatin = compound: C1CC(C1)(C(=O)[O-])C(=O)[O-].N.N.[Pt+2] [Carboplatin]; settings: max 10 µM
How it was run: as §1

Crizotinib = compound: C[C@@H](Oc1cc(-c2cnn(C3CCNCC3)c2)cnc1N)c1c(Cl)ccc(F)c1Cl [Crizotinib]; settings: max 10 µM
How it was run: as §1

[1] = compound: O=C(Nc1ccc2[nH]nc(-c3ccncc3)c2c1)[C@@H]1CCN(CC(=O)N2CCN(c3ccc(-c4ncccn4)cc3)CC2)C1; settings: max 5 µM
How it was run: as §1

AZD6738 = compound: C[C@@H]1COCCN1C2=NC(=NC(=C2)C3(CC3)[S@](=N)(=O)C)C4=C5C=CNC5=NC=C4 [AZD6738]; settings: max 10 µM
How it was run: as §1

Venetoclax = compound: CC1(C)CCC(CN2CCN(c3ccc(C(=O)NS(=O)(=O)c4ccc(NCC5CCOCC5)c([N+](=O)[O-])c4)c(Oc4cnc5[nH]ccc5c4)c3)CC2)=C(c2ccc(Cl)cc2)C1 [Venetoclax]; settings: max 1 µM
How it was run: as §1

Dasatinib = compound: CC1=C(C(=CC=C1)Cl)NC(=O)C2=CN=C(S2)NC3=CC(=NC(=N3)C)N4CCN(CC4)CCO [Dasatinib]; settings: max 2 µM
How it was run: as §1

AZD1390 = compound: CC(C)n1c(=O)n(C)c2cnc3cc(F)c(-c4ccc(OCCCN5CCCCC5)nc4)cc3c21 [AZD1390]; settings: max 0.3 µM
How it was run: as §1

Olaparib = compound: O=C(c1cc(Cc2n[nH]c(=O)c3ccccc23)ccc1F)N1CCN(C(=O)C2CC2)CC1 [Olaparib]; settings: max 10 µM
How it was run: as §1

Etoposide = compound: COc1cc([C@@H]2c3cc4c(cc3[C@@H](O[C@@H]3O[C@@H]5CO[C@@H](C)O[C@H]5[C@H](O)[C@H]3O)[C@H]3COC(=O)[C@H]23)OCO4)cc(OC)c1O [Etoposide]; settings: max 10 µM
How it was run: as §1

Trametinib = compound: CC(=O)Nc1cccc(-n2c(=O)n(C3CC3)c(=O)c3c(Nc4ccc(I)cc4F)n(C)c(=O)c(C)c32)c1 [Trametinib]; settings: max 1 µM
How it was run: as §1

SN-38 = compound: CCc1c2c(nc3ccc(O)cc13)-c1cc3c(c(=O)n1C2)COC(=O)[C@]3(O)CC [SN-38]; settings: max 0.3 µM
How it was run: as §1

Taselisib = compound: Cc1nc(-c2cn3c(n2)-c2ccc(-c4cnn(C(C)(C)C(N)=O)c4)cc2OCC3)n(C(C)C)n1 [Taselisib]; settings: max 10 µM
How it was run: as §1

Palbociclib = compound: CC(=O)c1c(C)c2cnc(Nc3ccc(N4CCNCC4)cn3)nc2n(C2CCCC2)c1=O [Palbociclib]; settings: max 10 µM
How it was run: as §1

Gemcitabine = compound: Nc1ccn([C@@H]2O[C@H](CO)[C@@H](O)C2(F)F)c(=O)n1 [Gemcitabine]; settings: max 0.3 µM
How it was run: as §1

Savolitinib = compound: C[C@@H](c1ccc2nccn2c1)n1nnc2ncc(-c3cnn(C)c3)nc21 [Savolitinib]; settings: max 1 µM
How it was run: as §1

Doxorubicin = compound: COc1cccc2c1C(=O)c1c(O)c3c(c(O)c1C2=O)C[C@@](O)(C(=O)CO)C[C@@H]3O[C@H]1C[C@H](N)[C@H](O)[C@H](C)O1 [Doxorubicin]; settings: max 1 µM
How it was run: as §1

AZD5153 = compound: COc1nnc2ccc(N3CCC(c4ccc(OCCN5CCN(C)C(=O)[C@H]5C)cc4)CC3)nn12 [AZD5153]; settings: max 1 µM
How it was run: as §1

Lapatinib = compound: CS(=O)(=O)CCNCc1ccc(-c2ccc3ncnc(Nc4ccc(OCc5cccc(F)c5)c(Cl)c4)c3c2)o1 [Lapatinib]; settings: max 10 µM
How it was run: as §1

Gefitinib = compound: COc1cc2ncnc(Nc3ccc(F)c(Cl)c3)c2cc1OCCCN1CCOCC1 [Gefitinib]; settings: max 10 µM
How it was run: as §1

AZD8186 = compound: C[C@@H](Nc1cc(F)cc(F)c1)c1cc(C(=O)N(C)C)cc2c(=O)cc(N3CCOCC3)oc12 [AZD8186]; settings: max 10 µM
How it was run: as §1

Paclitaxel = compound: CC(=O)O[C@H]1C(=O)[C@@]2(C)[C@H]([C@H](OC(=O)c3ccccc3)[C@]3(O)C[C@H](OC(=O)[C@H](O)[C@@H](NC(=O)c4ccccc4)c4ccccc4)C(C)=C1C3(C)C)[C@]1(OC(C)=O)CO[C@@H]1C[C@@H]2O [Paclitaxel]; settings: max 3 µM
How it was run: as §1

MK-2206 = compound: NC1(c2ccc(-c3nc4ccn5c(=O)[nH]nc5c4cc3-c3ccccc3)cc2)CCC1 [MK-2206]; settings: max 10 µM
How it was run: as §1

Alisertib = compound: COc1cc(Nc2ncc3c(n2)-c2ccc(Cl)cc2C(c2c(F)cccc2OC)=NC3)ccc1C(=O)O [Alisertib]; settings: max 10 µM
How it was run: as §1

AZD7648 = compound: Cc1cc2ncnn2cc1Nc1ncc2c(n1)n(C1CCOCC1)c(=O)n2C [AZD7648]; settings: max 10 µM
How it was run: as §1

SRA737 = compound: N#Cc1cnc(Nc2cc(NC[C@H]3CNCCO3)c(C(F)(F)F)cn2)cn1 [SRA737]; settings: max 10 µM
How it was run: as §1

AZD5991 = compound: Cc1c2c(nn1C)CSCc1cc(n(C)n1)CSc1cc(c3ccccc3c1)OCCCc1c(C(=O)O)n(C)c3c-2c(Cl)ccc13 [AZD5991]; settings: max 1 µM
How it was run: as §1

AZD5363 = compound: C1CN(CCC1(C(=O)N[C@@H](CCO)C2=CC=C(C=C2)Cl)N)C3=NC=NC4=C3C=CN4 [AZD5363]; settings: max 10 µM
How it was run: as §1

| Cell Line | IC50, cell viability 72 h (AZD1775) [nM] | IC50, cell viability 72 h (AZD4320) [nM] | IC50, cell viability 72 h (Prexasertib) [nM] | IC50, cell viability 72 h (AZD2811) [nM] | IC50, cell viability 72 h (AZD0156) [nM] | IC50, cell viability 72 h (Selumetinib) [nM] | IC50, cell viability 72 h (SG3199) [nM] | IC50, cell viability 72 h (5-Fluorouracil) [nM] | IC50, cell viability 72 h (Carboplatin) [nM] | IC50, cell viability 72 h (Crizotinib) [nM] | IC50, cell viability 72 h [1] [nM] | IC50, cell viability 72 h (AZD6738) [nM] | IC50, cell viability 72 h (Venetoclax) [nM] | IC50, cell viability 72 h (Dasatinib) [nM] | IC50, cell viability 72 h (AZD1390) [nM] | IC50, cell viability 72 h (Olaparib) [nM] | IC50, cell viability 72 h (Etoposide) [nM] | IC50, cell viability 72 h (Trametinib) [nM] | IC50, cell viability 72 h (SN-38) [nM] | IC50, cell viability 72 h (Taselisib) [nM] | IC50, cell viability 72 h (Palbociclib) [nM] | IC50, cell viability 72 h (Gemcitabine) [nM] | IC50, cell viability 72 h (Savolitinib) [nM] | IC50, cell viability 72 h (Doxorubicin) [nM] | IC50, cell viability 72 h (AZD5153) [nM] | IC50, cell viability 72 h (Lapatinib) [nM] | IC50, cell viability 72 h (Gefitinib) [nM] | IC50, cell viability 72 h (AZD8186) [nM] | IC50, cell viability 72 h (Paclitaxel) [nM] | IC50, cell viability 72 h (MK-2206) [nM] | IC50, cell viability 72 h (Alisertib) [nM] | IC50, cell viability 72 h (AZD7648) [nM] | IC50, cell viability 72 h (SRA737) [nM] | IC50, cell viability 72 h (AZD5991) [nM] | IC50, cell viability 72 h (AZD5363) [nM] |
| --- | --- | --- | --- | --- | --- | --- | --- | --- | --- | --- | --- | --- | --- | --- | --- | --- | --- | --- | --- | --- | --- | --- | --- | --- | --- | --- | --- | --- | --- | --- | --- | --- | --- | --- | --- |
| H-EMC-SS (Chondrosarcoma) | > 3000 | > 1000 | > 1000 | > 1000 | > 3000 | > 10000 | > 1 | > 20000 | > 10000 | > 10000 | > 5000 | > 10000 | > 1000 | > 2000 | > 300 | > 10000 | > 10000 | 293 | 153 | 3360 | > 10000 | > 300 | > 1000 | 428 | > 1000 | > 10000 | > 10000 | > 10000 | > 3000 | > 10000 | 8380 | > 10000 | > 10000 | > 1000 | > 10000 |
| HSC-2 (Oral Cavity Carcinoma) | 2130 | > 1000 | 124 | > 1000 | > 3000 | > 10000 | > 1 | > 20000 | > 10000 | > 10000 | > 5000 | 8500 | > 1000 | 176 | > 300 | > 10000 | 4420 | > 1000 | 5.35 | 171 | > 10000 | 18.2 | > 1000 | 367 | 238 | 4010 | 3960 | > 10000 | 3.31 | > 10000 | 2400 | > 10000 | > 10000 | 439 | > 10000 |
| JHH-7 (Hepatocellular Carcinoma) | 2610 | > 1000 | > 1000 | > 1000 | > 3000 | > 10000 | > 1 | > 20000 | > 10000 | > 10000 | > 5000 | > 10000 | > 1000 | > 2000 | > 300 | > 10000 | > 10000 | > 1000 | > 300 | > 10000 | > 10000 | > 300 | > 1000 | > 1000 | > 1000 | > 10000 | > 10000 | > 10000 | 660 | > 10000 | > 10000 | > 10000 | > 10000 | > 1000 | > 10000 |
